“And” between values parts separate entries of the source, which are not always exact repeats. Equal values may be shown once. Toxic doses and inconclusive results are not listed. Rule for the calls: active = survival T/C of 150% or more; inactive = T/C below 125% in these data.
System: P388 leukemia ip, CD2F1 mice, survival T/C
Assay: NCI In Vivo Anticancer Drug Screen. Data for tumor model P388 Leukemia (intraperitoneal) in CD2F1 (CDF1) mice
Settings: endpoint: median survival time, higher = longer survival
Outline: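 Mice carrying the transplanted tumor received test compound or vehicle. Survival was recorded in each group, and the value is the treated-group measurement divided by that of the vehicle-treated control group.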

[1] = dose: 100.0 mg/kg/injection, schedule: Q01DX009 (ip), vehicle: saline with Tween-80
[2] = dose: 100.0 mg/kg/injection, schedule: Q04DX003 (ip), vehicle: saline with Tween-80
[3] = dose: 200.0 mg/kg/injection, schedule: Q01DX009 (ip), vehicle: saline with Tween-80
[4] = dose: 400.0 mg/kg/injection, schedule: Q01DX009 (ip), vehicle: saline with Tween-80
[5] = dose: 25.0 mg/kg/injection, schedule: Q01DX009 (ip), vehicle: saline with Tween-80
[6] = dose: 50.0 mg/kg/injection, schedule: Q01DX009 (ip), vehicle: saline with Tween-80
[7] = dose: 60.0 mg/kg/injection, schedule: Q01DX005 (ip), vehicle: saline with Tween-80
[8] = dose: 120.0 mg/kg/injection, schedule: Q01DX005 (ip), vehicle: saline with Tween-80

Measured: T/C

O=C(O)c1c(Cl)nc2n1CCS2
inactive: dose: 50.0 mg/kg/injection, schedule: Q01DX001 (ip), vehicle: Klucel (hydroxypropylcellulose) (HPC) 97 % of control | dose: 100.0 mg/kg/injection, schedule: Q01DX001 (ip), vehicle: Klucel (hydroxypropylcellulose) (HPC) 101 % of control | dose: 200.0 mg/kg/injection, schedule: Q01DX001 (ip), vehicle: Klucel (hydroxypropylcellulose) (HPC) 104 % of control

S=C(NC1CCCCC1)NC1CCCCC1
inactive: [1] 90 % of control | [2] 95 % of control | [3] 90 % of control | dose: 200.0 mg/kg/injection, schedule: Q04DX003 (ip), vehicle: saline with Tween-80 90 % of control | [4] 86 % of control | dose: 400.0 mg/kg/injection, schedule: Q04DX003 (ip), vehicle: saline with Tween-80 90 % of control

COC(=O)C1=C(C(=O)OC)C2(C)NC1(C)c1c(C)ccc(C)c12
inactive: dose: 42.5 mg/kg/injection, schedule: Q01DX001 (ip), vehicle: saline with Tween-80 103 % of control | dose: 85.0 mg/kg/injection, schedule: Q01DX001 (ip), vehicle: saline with Tween-80 94 % of control | dose: 170.0 mg/kg/injection, schedule: Q01DX001 (ip), vehicle: saline with Tween-80 89 % of control

CC(=O)c1cc2cc3c4c(c2oc1=O)CCCN4CCC3
inactive: dose: 60.0 mg/kg/injection, schedule: Q01DX005 (ip), vehicle: Klucel (hydroxypropylcellulose) (HPC) 104 % of control | dose: 120.0 mg/kg/injection, schedule: Q01DX005 (ip), vehicle: Klucel (hydroxypropylcellulose) (HPC) 112 % of control

COc1ccc(CCNc2cc3ncn(C)c(=O)c3cc2[N+](=O)[O-])cc1OC
inactive: dose: 100.0 mg/kg/injection, schedule: Q04DX003 (ip), vehicle: Klucel (hydroxypropylcellulose) (HPC) 101 % of control | dose: 200.0 mg/kg/injection, schedule: Q04DX003 (ip), vehicle: Klucel (hydroxypropylcellulose) (HPC) 100 % of control | dose: 400.0 mg/kg/injection, schedule: Q04DX003 (ip), vehicle: Klucel (hydroxypropylcellulose) (HPC) 86 % of control

NC(=S)N/N=C/c1cccnc1
inactive: [5] 92 % of control | [6] 92 % of control | [1] 99 % of control | [3] 92 % of control

[CH3][Sn]1([CH3])[O]P(=O)(c2ccccc2)[O]1
inactive: dose: 6.25 mg/kg/injection, schedule: Q01DX009 (ip), vehicle: saline with Tween-80 99 % of control | dose: 6.25 mg/kg/injection, schedule: Q01DX009 (ip), vehicle: saline 110 % of control | dose: 12.5 mg/kg/injection, schedule: Q01DX009 (ip), vehicle: saline with Tween-80 96 % of control | dose: 12.5 mg/kg/injection, schedule: Q01DX009 (ip), vehicle: saline 112 % of control | [5] 107 % of control | dose: 25.0 mg/kg/injection, schedule: Q01DX009 (ip), vehicle: saline 119 % of control | [6] 105 % of control | dose: 50.0 mg/kg/injection, schedule: Q01DX009 (ip), vehicle: saline 112 % of control and 120 % of control

CCc1nc(N)nc(N)c1-c1ccc(NCCc2ccccc2)c([N+](=O)[O-])c1
inactive: dose: 50.0 mg/kg/injection, schedule: Q01DX005 (ip), vehicle: Klucel (hydroxypropylcellulose) (HPC) 101 % of control | dose: 100.0 mg/kg/injection, schedule: Q01DX005 (ip), vehicle: Klucel (hydroxypropylcellulose) (HPC) 113 % of control and 124 % of control | dose: 400.0 mg/kg/injection, schedule: Q01DX005 (ip), vehicle: Klucel (hydroxypropylcellulose) (HPC) 98 % of control
active: dose: 200.0 mg/kg/injection, schedule: Q01DX005 (ip), vehicle: Klucel (hydroxypropylcellulose) (HPC) 162 % of control

CC1OC(=O)c2ccccc2S1=O (configuration not stated)
inactive: [1] 95 % of control | [3] 90 % of control | [4] 95 % of control

Cc1ncn(-c2ccccc2)c(=O)c1N=Cc1ccccc1
inactive: [7] 86 % of control | [8] 87 % of control

COC(=O)C1=[N+]([O-])OC(C(=O)OC)C1c1ccc(F)cc1 (configuration not stated)
inactive: [7] 93 % of control | [8] 90 % of control | dose: 240.0 mg/kg/injection, schedule: Q01DX005 (ip), vehicle: saline with Tween-80 94 % of control

COC(=O)Cn1/c(=N\N=C(/C)c2ccc(C)cc2)sc2ccccc21
inactive: dose: 100.0 mg/kg/injection, schedule: Q01DX001 (ip), vehicle: saline with Tween-80 95 % of control | dose: 200.0 mg/kg/injection, schedule: Q01DX001 (ip), vehicle: saline with Tween-80 91 % of control

CCC(c1ccc2cc(OC)ccc2c1)C(C)(C)C(=O)F (configuration not stated)
inactive: dose: 25.0 mg/kg/injection, schedule: Q04DX003 (ip), vehicle: saline with Tween-80 104 % of control | dose: 33.0 mg/kg/injection, schedule: Q01DX009 (ip), vehicle: saline with Tween-80 104 % of control | [6] 104 % of control | dose: 50.0 mg/kg/injection, schedule: Q04DX003 (ip), vehicle: saline with Tween-80 104 % of control | dose: 75.0 mg/kg/injection, schedule: Q01DX009 (ip), vehicle: saline with Tween-80 122 % of control | [2] 87 % of control

CS/C(N)=N/NC(=O)CCC(=O)Nc1cc(Cl)c(Cl)cc1Cl
inactive: dose: 100.0 mg/kg/injection, schedule: Q04DX002 (ip), vehicle: saline with Tween-80 102 % of control | dose: 200.0 mg/kg/injection, schedule: Q04DX002 (ip), vehicle: saline with Tween-80 100 % of control | dose: 400.0 mg/kg/injection, schedule: Q04DX002 (ip), vehicle: saline with Tween-80 96 % of control

Reference: PubChem BioAssay AID330 (DTP/NCI, 2004)
